# Species: Rattus norvegicus
# Assay: Open TG-GATES - Regimen: Daily Repeat
# Assay type: toxicity, organism-based, Sprague-Dawley
# Parameters: regimen Daily Repeat, gender Male, age 6 weeks
# Conditions: in vivo, po, 2000 mg/kg, route gavage, dose level High; for Bas / Eos / Hb / Ht / Lym / MCH / MCHC / MCV / Mono / Neu / Plat / RBC / Ret / WBC: tissue Blood
# [1] = 72 h, tissue Kidney, time 3 day
# [2] = 72 h, tissue Plasma, time 3 day
compound,measurement,setting,value
CC(N)=O [ACETAMIDE],TERMINAL_BW,"72 h, time 3 day",234.1 g
same,Bas,"72 h, time 3 day",0%
same,Eos,"72 h, time 3 day",0.4%
same,Hb,"72 h, time 3 day",13 g/dL
same,Ht,"72 h, time 3 day",40%
same,Lym,"72 h, time 3 day",78%
same,MCH,"72 h, time 3 day",20.1 pg
same,MCHC,"72 h, time 3 day",32.6%
same,MCV,"72 h, time 3 day",61.7 fL
same,Mono,"72 h, time 3 day",5.2%
same,Neu,"72 h, time 3 day",14.4%
same,Plat,"72 h, time 3 day",119.8 x10_4/uL
same,RBC,"72 h, time 3 day",647.8 x10_4/ul
same,Ret,"72 h, time 3 day",7.6%
same,WBC,"72 h, time 3 day",106.6 x10_2/uL
same,KIDNEY_L,[1],1.1 g
same,KIDNEY_R,[1],1.1 g
same,KIDNEY_TOTAL,[1],2.2 g
same,LIVER,"72 h, tissue Liver, time 3 day",10.9 g
same,A/G,[2],1
same,ALP,[2],1650 IU/L
same,ALT,[2],60.6 IU/L
same,AST,[2],95.2 IU/L
same,BUN,[2],18.4 mg/dL
same,CRE,[2],0.1 mg/dL
same,Ca,[2],10.9 mg/dL
same,Cl,[2],103.7 meq/L
same,DBIL,[2],0.006 mg/dL
same,GLC,[2],187.4 mg/dL
same,IP,[2],7.5 mg/dL
same,K,[2],4.2 meq/L
same,LDH,[2],200.2 IU/L
same,Na,[2],140.6 meq/L
same,PL,[2],160.4 mg/dL
same,RALB,[2],2.8 g/dL
same,TBIL,[2],0.014 mg/dL
same,TC,[2],79.2 mg/dL
same,TG,[2],94.6 mg/dL
same,TP,[2],5.5 g/dL
same,gamma-GTP,[2],1 IU/L
same,TERMINAL_BW,"[…], time 7 day",255.2 g
same,TERMINAL_BW,"[…], time 14 day",310 g
same,TERMINAL_BW,"[…], time 28 day",403 g
same,Bas,"[…], time 7 day",0%
same,Eos,"[…], time 7 day",1%
same,Hb,"[…], time 7 day",13.7 g/dL
same,Ht,"[…], time 7 day",41.1%
same,Lym,"[…], time 7 day",78.2%
same,MCH,"[…], time 7 day",19.5 pg
same,MCHC,"[…], time 7 day",33.4%
same,MCV,"[…], time 7 day",58.4 fL
same,Mono,"[…], time 7 day",4%
same,Neu,"[…], time 7 day",15.2%
same,Plat,"[…], time 7 day",89.2 x10_4/uL
same,RBC,"[…], time 7 day",704.6 x10_4/ul
same,Ret,"[…], time 7 day",4.4%
same,WBC,"[…], time 7 day",108.9 x10_2/uL
same,Bas,"[…], time 14 day",0%
same,Eos,"[…], time 14 day",0.4%
same,Hb,"[…], time 14 day",14 g/dL
same,Ht,"[…], time 14 day",41.6%
same,Lym,"[…], time 14 day",84.8%
same,MCH,"[…], time 14 day",19.6 pg
same,MCHC,"[…], time 14 day",33.6%
same,MCV,"[…], time 14 day",58.2 fL
same,Mono,"[…], time 14 day",2.4%
same,Neu,"[…], time 14 day",10.6%
same,Plat,"[…], time 14 day",101.3 x10_4/uL
same,RBC,"[…], time 14 day",713.8 x10_4/ul
same,Ret,"[…], time 14 day",4.1%
same,WBC,"[…], time 14 day",156.4 x10_2/uL
same,Bas,"[…], time 28 day",0%
same,Eos,"[…], time 28 day",0.8%
same,Hb,"[…], time 28 day",14.8 g/dL
same,Ht,"[…], time 28 day",44%
same,Lym,"[…], time 28 day",78.8%
same,MCH,"[…], time 28 day",19.4 pg
same,MCHC,"[…], time 28 day",33.8%
same,MCV,"[…], time 28 day",57.6 fL
same,Mono,"[…], time 28 day",3%
